Columns and labels:
sperm = experiment: Mouse sperm terata experiment; type: in vivo, Kumming species mouse
Description: 3 Mouse sperm terata experiment:
Adopting first class qualified Kumming species mouse (provided by animal house of CMA) whose weight are 27~36 g. Making 3 DAS dose groups as 10, 600, 1200 mg/kg plus a positive (cyclophosphamide 30 mg/kg, inject to stomach 5 days) and a negative reference group. Filling the gastric of each mouse for each of 5 days continuously, and executing the mouse at 35th day after first filling, taking epididymis of both sides, coloring, observing 1000 sperms for each mouse and calculating the ratio of sperm mutation.

[1] = system: polychromatic erythrocytes; experiment: Mouse marrow micronucleus experiment; type: in vivo, Kumming species mouse
Description: 2 Mouse marrow micronucleus experiment:
Adopting first class qualified Kumming species mouse (provided by animal house of CMA) whose weight are 24~30 g. Making 3 DAS dose groups as 10, 600, 1200 mg/kg plus a positive (cyclophosphamide 30 mg/kg, inject to stomach 2 times) and a negative reference group, 10 mice for each group, half male and half female. Filling the gastric of each mouse two days continuously, and executing the mouse 6 hours after last filling, taking sternum marrow to make thin section as routine, coloring to red. Counting 1000 polychromatic erythrocytes for each mouse, observing polychromatic erythrocytes which contains micronucleus and calculating the rate of micronucleus cell.

[2] = system: non-insulin dependent type diabetes; experiment: clinical experiments on humans, non-insulin dependent type diabetes; settings: human, in vivo
Description: (§1) Clinical experiments were also conducted on humans from various provinces of China. Five examples of these clinical experiments are as follows (in each experiment each tablet had 20 mg of non-concentrated powder of Echevaria glauca, Sinocrassula berger, Crassulaceae according to the invention): […]

diabetes models = experiment: blood sugar in mice diabetes models made by injecting Tetraoxymidine; type: in vivo, Kumming species mice; settings: for Blood sugar value, After Use / Reducer rate (-.increment.X%) / Blood sugar value, Before Use: 11 female mice, 0.2 ml/mouse/day; for Blood sugar value, After Use: 6 days after filling the gastric, 0.5 mg/ml powder; for Reducer rate (-.increment.X%) / sequence of reducing blood sugar: 6 days; for Reducer rate (-.increment.X%): 0.5 mg/ml; for Blood sugar value, Before Use: baseline before 0.5 mg/ml powder
Description: Then, an animal experiment was conducted using a powder and concentrated powder from the methods of steps of FIGS. 2 through 5. The experimental method is as follows: Separate 88 Kumming species mice randomly to reference group, DSP group, DAS group, DAS 1, DAS 2, and DAS 3 groups, Damicron group, and Youjiangtang group, 11 female mice in each group. Use the mice to make diabetes models by injecting Tetraoxymidine, and compare experiment group with known DSP, Damicron, Youjiangtang (as the standard sample). The dose for every group: 0.5 mg/ml powder, every day 0.2 ml for every mouse, and every day 0.2 ml sodium chloride solution for the reference group only. Take blood to measure blood sugar value 6 days after filling the gastric.

[3] = system: insulin dependent type diabetes; experiment: clinical experiment on human, insulin dependent type diabetes; type: in vivo, humans; settings: Example 2, 20 units insulin injected
Description: as §1

| Molecule | Blood sugar value, After Use (diabetes models) [mg %] | Reducer rate (-.increment.X%) (diabetes models) [%] | Blood sugar value, Before Use (diabetes models) [mg %] | sequence of reducing blood sugar (diabetes models) | other results |
| --- | --- | --- | --- | --- | --- |
| O=P1(N(CCCl)CCCl)NCCCO1 (stereo not drawn) [cyclophosphamide] | – | – | – | – | Variant rate (sperm; Positive R.G., 30 mg/kg, 5 days): 61.9%; Variant sperm number (sperm; Positive R.G., 30 mg/kg, 5 days, 10000 sperm observed): 619; P vs negative group, sperm terata (sperm; positive reference group): < 0.01; Ratio of cell micronucleus ([1]; Positive R.G., 30 mg/kg, 2 times): 45.3%; P vs negative group, micronucleus ([1]; positive reference group): < 0.01 |
| COc1ccc(Cl)cc1C(=O)NCCc1ccc(S(=O)(=O)NC(=O)NC2CCCCC2)cc1 [YJT] | 162.28 | 45.28 | 296.38 | DAS2 >DAS3 >DAS1>DSP>YJT>DMC | side effect (a sign of low blood sugar) [2]: became dizzy |
| insulin | – | – | – | – | high or low blood sugar before DAS [3]: became high or low blood sugar occasionally |
| Cc1ccc(S(=O)(=O)NC(=O)NN2CC3CCCC3C2)cc1 (stereo not drawn) [DMC] | 110.50 | 42.55 | 292.35 | DAS2 >DAS3 >DAS1>DSP>YJT>DMC | – |

From patent US5911993A, “Homeopathic antidiabetic treatment” (priority 1997, dated 1999)
